{"source": "PubChem BioAssay (NCI)", "assay_in_all_cases": "NCI-60 cell line screen, 48 h", "key": {"DU-145 prostate": {"system": "DU-145 prostate"}, "A498 renal": {"system": "A498 renal"}, "MOLT-4 leukemia": {"system": "MOLT-4 leukemia"}, "OVCAR-4 ovarian": {"system": "OVCAR-4 ovarian"}, "U251 CNS": {"system": "U251 CNS"}, "HT29 colon": {"system": "HT29 colon"}, "K-562 leukemia": {"system": "K-562 leukemia"}, "NCI-H522 lung": {"system": "NCI-H522 lung"}, "CAKI-1 renal": {"system": "CAKI-1 renal"}, "HL-60(TB) leukemia": {"system": "HL-60(TB) leukemia"}, "HCC-2998 colon": {"system": "HCC-2998 colon"}, "RPMI-8226 leukemia": {"system": "RPMI-8226 leukemia"}, "COLO 205 colon": {"system": "COLO 205 colon"}, "UACC-62 melanoma": {"system": "UACC-62 melanoma"}, "TK-10 renal": {"system": "TK-10 renal"}, "SF-295 CNS": {"system": "SF-295 CNS"}, "SK-OV-3 ovarian": {"system": "SK-OV-3 ovarian"}, "NCI-H460 lung": {"system": "NCI-H460 lung"}, "MDA-MB-435": {"system": "MDA-MB-435"}, "CCRF-CEM leukemia": {"system": "CCRF-CEM leukemia"}, "SK-MEL-2 melanoma": {"system": "SK-MEL-2 melanoma"}, "BT-549 breast": {"system": "BT-549 breast"}, "SW-620 colon": {"system": "SW-620 colon"}, "NCI-H226 lung": {"system": "NCI-H226 lung"}, "PC-3 prostate": {"system": "PC-3 prostate"}, "HCT-116 colon": {"system": "HCT-116 colon"}, "NCI-H23 lung": {"system": "NCI-H23 lung"}}, "note": "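Five concentrations, 48 hours, 96-well plates. GI50 marks 50% less growth. TGI: concentration producing complete growth inhibition.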", "data": [{"smiles": "COc1ccc2c(CCC(c3ccccc3)c3ccccc3)c3[n+](cc2c1OC)CCc1cc2c(cc1-3)OCO2", "values": [{"measurement": "GI50", "setting": "DU-145 prostate", "result": 348, "unit": "nM"}, {"measurement": "TGI", "setting": "DU-145 prostate", "result": 1800, "unit": "nM"}, {"measurement": "GI50", "setting": "A498 renal", "result": 1310, "unit": "nM"}, {"measurement": "TGI", "setting": "A498 renal", "result": 6800, "unit": "nM"}, {"measurement": "GI50", "setting": "MOLT-4 leukemia", "result": 381, "unit": "nM"}, {"measurement": "TGI", "setting": "MOLT-4 leukemia", "result": 3040, "unit": "nM"}, {"measurement": "GI50", "setting": "OVCAR-4 ovarian", "result": 271, "unit": "nM"}, {"measurement": "TGI", "setting": "OVCAR-4 ovarian", "result": 1510, "unit": "nM"}, {"measurement": "GI50", "setting": "U251 CNS", "result": 172, "unit": "nM"}, {"measurement": "TGI", "setting": "U251 CNS", "result": 1380, "unit": "nM"}, {"measurement": "GI50", "setting": "HT29 colon", "result": 139, "unit": "nM"}, {"measurement": "TGI", "setting": "HT29 colon", "result": 1310, "unit": "nM"}, {"measurement": "GI50", "setting": "K-562 leukemia", "result": 327, "unit": "nM"}, {"measurement": "TGI", "setting": "K-562 leukemia", "result": 3010, "unit": "nM"}, {"measurement": "GI50", "setting": "NCI-H522 lung", "result": 122, "unit": "nM"}, {"measurement": "TGI", "setting": "NCI-H522 lung", "result": 858, "unit": "nM"}, {"measurement": "GI50", "setting": "CAKI-1 renal", "result": 3940, "unit": "nM"}, {"measurement": "TGI", "setting": "CAKI-1 renal", "result": 16100, "unit": "nM"}, {"measurement": "GI50", "setting": "HL-60(TB) leukemia", "result": 82.2, "unit": "nM"}, {"measurement": "TGI", "setting": "HL-60(TB) leukemia", "result": 526, "unit": "nM"}, {"measurement": "GI50", "setting": "HCC-2998 colon", "result": 326, "unit": "nM"}, {"measurement": "TGI", "setting": "HCC-2998 colon", "result": 1930, "unit": "nM"}, {"measurement": "GI50", "setting": "RPMI-8226 leukemia", "result": 50.7, "unit": "nM"}, {"measurement": "TGI", "setting": "RPMI-8226 leukemia", "result": 1720, "unit": "nM"}, {"measurement": "GI50", "setting": "COLO 205 colon", "result": 83.1, "unit": "nM"}, {"measurement": "TGI", "setting": "COLO 205 colon", "result": 619, "unit": "nM"}, {"measurement": "GI50", "setting": "UACC-62 melanoma", "result": 153, "unit": "nM"}, {"measurement": "TGI", "setting": "UACC-62 melanoma", "result": 1760, "unit": "nM"}, {"measurement": "GI50", "setting": "TK-10 renal", "result": 339, "unit": "nM"}, {"measurement": "TGI", "setting": "TK-10 renal", "result": 1580, "unit": "nM"}, {"measurement": "GI50", "setting": "SF-295 CNS", "result": 732, "unit": "nM"}, {"measurement": "TGI", "setting": "SF-295 CNS", "result": 3990, "unit": "nM"}, {"measurement": "GI50", "setting": "SK-OV-3 ovarian", "result": 593, "unit": "nM"}, {"measurement": "TGI", "setting": "SK-OV-3 ovarian", "result": 1740, "unit": "nM"}, {"measurement": "GI50", "setting": "NCI-H460 lung", "result": 12.3, "unit": "nM"}, {"measurement": "TGI", "setting": "NCI-H460 lung", "result": 1030, "unit": "nM"}, {"measurement": "GI50", "setting": "MDA-MB-435", "result": 143, "unit": "nM"}, {"measurement": "TGI", "setting": "MDA-MB-435", "result": 1410, "unit": "nM"}, {"measurement": "GI50", "setting": "CCRF-CEM leukemia", "result": "< 39.8", "unit": "nM"}, {"measurement": "TGI", "setting": "CCRF-CEM leukemia", "result": 2710, "unit": "nM"}, {"measurement": "GI50", "setting": "SK-MEL-2 melanoma", "result": 70.5, "unit": "nM"}, {"measurement": "TGI", "setting": "SK-MEL-2 melanoma", "result": 1040, "unit": "nM"}, {"measurement": "GI50", "setting": "BT-549 breast", "result": 268, "unit": "nM"}, {"measurement": "TGI", "setting": "BT-549 breast", "result": 1350, "unit": "nM"}, {"measurement": "GI50", "setting": "SW-620 colon", "result": 315, "unit": "nM"}, {"measurement": "TGI", "setting": "SW-620 colon", "result": 1630, "unit": "nM"}, {"measurement": "GI50", "setting": "NCI-H226 lung", "result": 1560, "unit": "nM"}, {"measurement": "TGI", "setting": "NCI-H226 lung", "result": 5330, "unit": "nM"}, {"measurement": "GI50", "setting": "PC-3 prostate", "result": 112, "unit": "nM"}, {"measurement": "TGI", "setting": "PC-3 prostate", "result": 837, "unit": "nM"}, {"measurement": "GI50", "setting": "HCT-116 colon", "result": 202, "unit": "nM"}, {"measurement": "TGI", "setting": "HCT-116 colon", "result": 1270, "unit": "nM"}, {"measurement": "GI50", "setting": "NCI-H23 lung", "result": 242, "unit": "nM"}]}]}
